Reference: patent publication US9539256B2 (THE BOARD OF REGENTS OF THE UNIVERSITY OF TEXAS SYSTEM, priority 2012, dated 2017)
“Also recorded” adds a separate entry of the source.

Legend:
type I PKA holoenzyme = experiment: PKA counter screening, type I holoenzyme; type: biochemical; settings: 25 μM compound
Method: Kinase activity of the type I and II PKA holoenzyme are measured spectrophotometrically in a 96-well plate with a coupled enzyme assay as described previously (Cook et al. (1982) Biochemistry 21: 5794-5799). In this assay, the formation of ADP is coupled to the oxidation of NADH by the pyruvate kinase/lactate dehydrogenase reactions so the reaction rate can be determined by following the oxidation of NADH, reflected by a decrease in absorbance at 340 nm. […] Reactions are pre-equilibrated at room temperature and initiated by adding the Kemptide substrate (final concentration 0.26 mM).

EPAC1 [1] = target: T1, EPAC1 (Homo sapiens, UniProt O95398); experiment: Rap1 activation assay in HEK293/EPAC1 cells; type: cell-based
T1 sequence (O95398 1-923): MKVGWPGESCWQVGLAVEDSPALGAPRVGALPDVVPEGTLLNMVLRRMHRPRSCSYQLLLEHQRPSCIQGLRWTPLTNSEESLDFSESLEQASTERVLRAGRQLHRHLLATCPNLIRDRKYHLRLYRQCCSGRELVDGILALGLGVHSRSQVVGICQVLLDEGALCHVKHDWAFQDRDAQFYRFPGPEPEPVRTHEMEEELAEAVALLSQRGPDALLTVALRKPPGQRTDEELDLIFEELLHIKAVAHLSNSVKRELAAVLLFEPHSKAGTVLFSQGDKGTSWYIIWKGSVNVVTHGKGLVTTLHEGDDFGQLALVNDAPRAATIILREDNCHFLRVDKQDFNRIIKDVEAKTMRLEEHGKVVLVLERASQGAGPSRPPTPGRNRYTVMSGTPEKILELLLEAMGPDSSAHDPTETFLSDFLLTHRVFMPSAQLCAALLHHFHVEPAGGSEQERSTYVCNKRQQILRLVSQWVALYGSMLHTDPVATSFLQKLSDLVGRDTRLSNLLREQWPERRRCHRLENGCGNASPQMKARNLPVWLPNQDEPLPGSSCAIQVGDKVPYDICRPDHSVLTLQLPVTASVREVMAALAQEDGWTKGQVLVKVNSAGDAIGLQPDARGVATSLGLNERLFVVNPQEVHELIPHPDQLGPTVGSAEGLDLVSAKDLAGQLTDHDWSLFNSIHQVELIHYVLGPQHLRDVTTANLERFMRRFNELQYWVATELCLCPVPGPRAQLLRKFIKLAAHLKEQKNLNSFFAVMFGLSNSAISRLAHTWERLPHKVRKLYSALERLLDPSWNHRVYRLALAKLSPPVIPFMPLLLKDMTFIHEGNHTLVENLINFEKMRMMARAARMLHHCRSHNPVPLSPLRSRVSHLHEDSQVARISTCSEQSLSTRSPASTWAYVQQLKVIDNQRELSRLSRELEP
Method: FIGS. 9A-9B. Effects of EPAC2-specific antagonists on 007-AM-mediated cellular activation of Rap1. […] GTP-bound Rap1 (Rap1GTP) obtained by a Ral-GDSRBD-GST pull-down assay and total cellular Rap1 were detected by immunoblotting with Rap1-specific antibody. […] At test was used to determine statistical significance (*P<0.05).
Cellular activation of Rap1 was determined by pull-down of lysates derived from human vascular smooth muscle cell and HEK293 cells stably expressing EPAC1 or EPAC2 employing Ral-GDS-RBD-GST affinity beads as described earlier (Mei and Cheng (2005) Molecular Biosystems 1: 325-331).

R. australia = R. australia infection of HUVEC cells, immunofluorescence; type: cell-based; settings: 24 hours post infection
Method: FIG. 22. ESI-09 treatment suppresses cellular entry of R. australia. HUVEC cells treated with vehicle or ESI-09 were infected with R. australia. The levels of R. australia (Red) and EPAC1 (Green) were monitored with immunofluorescence staining 24 hours post infection.
To investigate the mechanism of EPAC1 inhibition-mediated protection of R. australia infection, HUVEC cells treated with vehicle or ESI-09 were infected with R. australia.

EPAC1 [2] = target: T1, EPAC1; experiment: Phosphorylation of Akt in HEK293/EPAC1 cells; type: cell-based; settings: 10 μM for 5 min before 007-AM
Method: FIG. 10. Effect of ESI-09 on EPAC-mediated PKB phosphorylation in HEK293/EPAC1, HEK293/EPAC2, and human vascular smooth muscle (hVSMC) cells. Serum-starved HEK293/EPAC1, HEK293/EPAC2, and hVSMC cells with or without pretreatment of […] ESI-09 were stimulated with 10 μM 007-AM. Cell lysates were subjected to Western blot analysis as described under “Experimental Procedures” using anti-phospho-Ser473-specific (PKB-P473) and anti-phospho-Thr308-specific (PKB-P308) PKB antibodies.
Cellular proteins from cell lysates treated with various reagents were separated by SDS-PAGE and transferred to polyvinylidene difluoride membrane. The levels of Akt activation were probed by immuno-blotting analyses using anti-phosphate T308 PKB antibodies (1:1000) and anti-phosphate S473 PKB antibodies (1:1000). At least three independent experiments were performed for each Western blot.

MIA PaCa-2 = experiment: Orthotopic MIA PaCa-2 pancreatic cancer metastasis model; type: in vivo; settings: athymic nude mice; 50 mg/kg per day, oral gavage; weekly bioluminescence imaging; 50 mg/kg/day
Method: FIG. 14. ESI-09 inhibits PDA metastasis in vivo. MIA PaCa-2 stably expressing luciferase was orthotopically implanted into the pancreas of athymic nude mice. The mice were randomly divided into two groups and treated with vehicle or ESI-09 (50 mg/kg, oral gavage), respectively. The growth and metastasis of the tumors were monitored by weekly bioluminescence imaging using the IVIS bioluminescence imaging system.
It has been recently reported that EPAC1 is over-expressed in pancreatic adenocarcinoma (Lorenz et al. (2008) Pancreas 37: 102-103). However, the functional role of EPAC1 elevation in this neoplasm is not clear. The inventors sought to employ ESI-09 to determine the role of EPAC1 signaling in pancreatic cancer. […] In order to determine if the observed impact on cell migration is EPAC1 specific, the effect of suppressing EPAC1 expression on AsPC-1 and PANC-1 migration using RNAi was examined. […] To further determine how ESI-09 inhibits PDA cell migration and invasion, a cell adhesion assay was performed using a collagen I matrix. […] To determine the in vivo anti-metastatic effect of ESI-09, MIA PaCa-2 stably expressing luciferase were orthotopically implanted into the pancreas of athymic nude mice. […] The growth and metastasis of the tumors were monitored by weekly bioluminescence imaging using the IVIS bioluminescence imaging system.

## CC(C)(C)c1cc(C(=O)C(C#N)=NNc2cccc(Cl)c2)no1 [ESI-09, 3-(5-Tert-Butyl-Isoxazol-3-Yl)-2-[(3-Chlorophenyl)-Hydrazono]-3-Oxo-Propionitrile]
Type I PKA holoenzyme
  cAMP-induced type I PKA holoenzyme activation: did not significantly alter
EPAC1 [1]
  007-AM induced Rap1 activation: effective
R. australia
  number of intracellular R. australia (cellular entry): dramatically reduced; also recorded: suppresses
EPAC1 [2]
  EPAC1-mediated Akt phosphorylation (T308 and S473): completely blocked
MIA PaCa-2
  PDA metastasis: reduced; also recorded: inhibits
